From EPA's ToxValDB 9.5 come the findings set out here.

Series [1] has as its system Rattus norvegicus. As to conditions: oral.
Series [2] relates to Rattus norvegicus. As to conditions: chronic, duration: 2 years, M/F.
The subject of series [3] is Neovison sp. As to conditions: repeat dose other; oral; Mink.
Series [4] has as its system Rattus norvegicus. As to conditions: oral. The source holds these as a separate data set.
The subject of series [5] is Rattus norvegicus. As to conditions: subchronic; duration: 13 weeks; oral; diet; M/F; Fischer 344; Deaths + Body Weight Changes: decrease + Urinalysis: Bright yellow + Absolute Organ Weight: Liver increase + Relative Organ Weight: Liver ….
In series [6] the test system is Mus musculus. As to conditions: subchronic, oral.
The subject of series [7] is Mus musculus. As to conditions: uterotrophic, duration: 3 days, Active.
The subject of series [8] is Rattus norvegicus. As to conditions: uterotrophic; duration: 3 days; oral; Active.
The test system of series [9] is Oryctolagus sp. As to conditions: New Zealand; for NOAEL: duration: 13 days, oral, gavage.
For series [10], the system named is Canidae.
In series [11] the test system is Rattus norvegicus. Particulars: for LD50: acute.
The test system of series [12] is Mus musculus. Particulars: oral, M/F; for NOEL: duration: 2 years, Albino, increased liver weight.
Series [13] relates to Gallus sp. Particulars: subchronic; duration: 90 days; oral; F; neurotoxicity.
Series [14] has as its system Rattus norvegicus. Particulars: repeat dose other; oral.
Series [15] concerns Mus musculus. As to conditions: inhalation.
The test system of series [16] is Primate. As to conditions: inhalation.
[17] abbreviates: oral, diet, liver weight increased males.
Where [18] appears, read: subchronic, duration: 90 days, oral, diet, Beagle.
[19] abbreviates: reproduction developmental, duration: 10 days, oral, gavage, F, CD.
[20] abbreviates: subchronic, duration: 90 days, oral, diet, Sprague-Dawley.
Where [21] appears, read: short-term, duration: 28 days, oral, gavage.
The mark [22] stands for this setting: chronic, duration: 78 weeks, diet, CD1, Increased incidences of fatty change & hypertrophy in hepatocytes.
[23] abbreviates: reproduction developmental, duration: 20 days, F, CD1.
[24] abbreviates: reproduction developmental, duration: 6 days, Macaca Fascicularis.
The mark [25] stands for this setting: developmental, duration: 11 days, inhalation, Sprague-Dawley.
The mark [26] stands for this setting: short-term, duration: 4 weeks, inhalation, Sprague-Dawley.
[27] abbreviates: subchronic, duration: 90 days, oral, gavage, Sprague-Dawley.

Structures are written as SMILES. Where “and” joins values, the source holds several entries; their conditions need not be identical. Identical values can stand only once.

Consider `ClC1=C(Cl)C2(Cl)C3C(Cl)C=CC3C1(Cl)C2(Cl)Cl` (stereo not drawn) [Heptachlor], for which the LOAEL (commonly the lowest dose or exposure tested at which an adverse effect was seen) in series [1] (reproduction developmental, duration: 14 days, gavage, F, CFT-Wistar, reproductive) was 1.8 mg/kg-day; in series [1] (reproduction developmental, duration: 364 days, gavage, M/F, Sprague-Dawley, immunological, neurological) it was 0.03 mg/kg-day; in series [3], 1 mg/kg-day. Besides, the LEL in series [2] (setting [17]) came out at 0.25 mg/kg-day. The NOEL was 0.15 mg/kg-day in [2] (setting [17]) and 0.15 mg/kg-day in series [4] (chronic, duration: 2 years, diet, Liver: Increased weight). The NOAEL (usually the highest tested level that showed no adverse finding) in [3] was found to be 0.1 mg/kg-day.
In the case of `O=C1CN(/N=C/c2ccc([N+](=O)[O-])o2)C(=O)N1` [Nitrofurantoin], the NOEL in series [5] is below 57.6 mg/kg-day. The no observed adverse effect level (NOAEL) in series [6] (duration: 13 weeks, diet, Testis: Damage) came out at 59.1 mg/kg-day.
Turning to `O=C(OCc1ccccc1)c1ccccc1O` [Benzyl salicylate], the results for the LEL in series [7] (oral) and in [8] were 11.1 mg/kg-day and 3.7 mg/kg-day, respectively.
In the case of `O=C(O)CCCC(=O)O` [Glutaric acid], the LD50 (usually the dose at which mortality reaches 50%) in series [9] (acute, dermal, occlusive) is above 10000 mg/kg; in series [11] (oral, Sprague-Dawley), 2750 mg/kg. In addition, the no-observed-adverse-effect level (NOAEL) in [9] (developmental) was above 500 mg/kg-day; in [9] (reproduction developmental, F) it was above 500 mg/kg-day; in series [11] (developmental, duration: 10 days, oral, gavage, CD), 1300 mg/kg-day; in series [11] (setting [19]) it was 125 mg/kg-day; in series [11] (reproduction developmental, duration: 10 days, oral, gavage, F, Sprague-Dawley), at least 1000 mg/kg-day. The entries for the “LOAEL (% diet)” value in [10] (setting [18]) and in series [11] (setting [20]) were 3 and 2, respectively. Besides, the “NOAEL (% diet)” value in series [10] (setting [18]) was at least 2; in series [11] (setting [20]), at least 1. The compound further registered an LOAEL in series [11] (setting [19]) of 400 mg/kg-day.
For `CCCCCCCCCCCCCCCCc1c(Oc2ccccc2S(=O)(=O)O)cccc1S(=O)(=O)O.[Na+].[Na+]` [Disodium hexadecyl(sulfophenoxy)benzenesulfonate], the NOAEL in series [10] (setting [18]) was determined as 200 mg/kg-day; in series [11] (setting [21]) it was 250 mg/kg-day; in series [11] (setting [20]), 100 mg/kg-day. Moreover, the LD50 is above 2000 mg/kg in [11] (dermal, occlusive, Sprague-Dawley); above 2000 mg/kg in [11] (dermal, occlusive, Wistar); above 3980 mg/kg in series [11] (oral, gavage); 1500 mg/kg and > 2000 mg/kg in [11] (oral, gavage, Fischer 344); 7740 mg/kg and > 5000 mg/kg in [11] (oral, gavage, Sprague-Dawley); above 5000 mg/kg in series [11] (oral, gavage, Wistar). Besides, the LOAEL in series [11] (setting [21]) was determined as 1000 mg/kg-day; in [11] (setting [20]) it was 200 mg/kg-day.
`CSc1nc2cc(Oc3cccc(Cl)c3Cl)c(Cl)cc2[nH]1` [Triclabendazole]: the NOEL in series [12] (Chronic / dietary, feed) was 0.27 mg/kg-day; in series [12] (chronic, diet), 0.27 mg/kg-day.
Consider `c1ccc(Nc2cccc3ccccc23)cc1` [N-Phenyl-1-naphthylamine], for which, in series [10] (chronic, duration: 36 months, oral, diet, Dog Other), the NOAEL came out at 290 mg/kg-day.
In series [12] (setting [22]), `C[C@](C#N)(COc1cc(C#N)ccc1C(F)(F)F)NC(=O)c1ccc(SC(F)(F)F)cc1` [Monepantel] yielded an LOAEL of 5.5 mg/kg-day and an NOAEL of 1.8 mg/kg-day.
In series [13], `CCOP(=S)(Oc1ccc([N+](=O)[O-])cc1)c1ccccc1` (stereo not drawn) [EPN] returned an LEL of 0.1 mg/kg-day and an NOEL of 0.01 mg/kg-day.
`FC(F)F` [Trifluoromethane] yielded an LOAEL in [10] (repeat dose other, inhalation, Beagle) above 14300 mg/m3.
As to `CO` [Methanol], the LOAEL in series [14] was 250 mg/kg-day; in series [15] (developmental, duration: 10 days, CD1), 2620 mg/m3; in series [15] (developmental, duration: 20 days, CD1), 13100 mg/m3; in series [15] (setting [23]), at most 19700 mg/m3; in series [16] (setting [24]) it was 6550 mg/m3; in [11] (setting [25]), at most 6550 mg/m3. The LOAEL in [11] (developmental, duration: 19 days, inhalation, Sprague-Dawley) is at most 26200 mg/m3; in series [11] (reproduction developmental, duration: 19 days, inhalation, F, Sprague-Dawley), at most 26200 mg/m3; in [11] (setting [26]) it was 6550 mg/m3; in series [11] (setting [27]), 2500 mg/kg-day. For the same compound, the NOAEL was 50 mg/kg-day in series [14]; above 1310 mg/m3 in series [15] (reproduction developmental, duration: 18 months, B6C3F1); above 19700 mg/m3 in series [15] (reproduction developmental, duration: 10 days, F, CD1); at least 13100 mg/m3 in series [15] (setting [23]); above 2360 mg/m3 in series [16] (developmental, duration: 120 days, Macaca Fascicularis); 3930 mg/m3 in [16] (setting [24]). Besides, the no observed adverse effect level (NOAEL) in series [16] (reproduction developmental, duration: 120 days, F, Macaca Fascicularis) was above 2360 mg/m3; in [16] (reproduction developmental, duration: 365 days, generation: F0), above 2360 mg/m3; in series [11] (setting [25]), at least 1310 mg/m3; in series [11] (reproduction developmental, duration: 11 days, inhalation, F, Sprague-Dawley) it was above 1310 mg/m3; in series [11] (reproduction developmental, duration: 365 days, inhalation, Sprague-Dawley, generation: F0), 131 mg/m3; in series [11] (reproduction developmental, duration: 365 days, inhalation, Sprague-Dawley, generation: F1) it was 131 mg/m3. In addition, the NOAEL is 131 mg/m3 in [11] (reproduction developmental, duration: 365 days, inhalation, Sprague-Dawley, generation: F2); at least 3930 mg/m3 in [11] (setting [26]); above 500 mg/kg-day in [11] (setting [27]). Further, the NOEL in [4] (subchronic, duration: 90 days, gavage, Blood: Increased alkaline phosphatase + Blood: Increased SGPT + Brain: Decreased weight) turned out to be 500 mg/kg-day.
Consider `C=CC#N` [Acrylonitrile], for which the LOAEL in [1] (chronic, duration: 22 months, drinking water, M/F, Spartan Sprague-Dawley, hematological) turned out to be 0.09 mg/kg-day; in series [2] (inhalation, Degeneration and inflammation of nasal respiratory epithelium + hyperplasia of mucous secreting cells), 43 mg/m3. In [6] (duration: 60 days, gavage, Testes: Decreased sperm counts + Testes: Seminiferous tubule degeneration), the NOAEL came out at 1 mg/kg-day.
Turning to `O=C(O)c1ccccc1` [Benzoic acid], in series [7] (injection, subcutaneous), the LEL was found to be 1 µg/100 g and the “LEL (ug/100 g BW)” value worked out at 10.
